Experiment [1] relates to Human alphaherpesvirus 3. Nature of the experiment: Antiviral activity against Varicella-Zoster virus (thymidine kinase deficient) TK-(07/1). The class given is functional, organism-based.
Experiment [2] concerns Human alphaherpesvirus 3. Nature of the experiment: Antiviral activity against Varicella-Zoster virus (OKA). The class given is functional, organism-based.
Experiment [3] concerns HEL (human embryonic lung). The experiment in a line: Minimal cytotoxic concentration, required to alter microscopically detectable cell morphology.
Experiment [4] deals with Human alphaherpesvirus 3. Nature of the experiment: Antiviral activity against Varicella-Zoster virus (YS). The class given is functional, organism-based.
Experiment [5] relates to HEL (human embryonic lung). Nature of the experiment: Cytotoxic concentration required to inhibit Hel cell growth.

This is an account of results in ChEMBL document CHEMBL1146720, “Bicyclic anti-VZV nucleosides: thieno analogues bearing an alkylphenyl side chain have reduced antiviral activity” (Bioorg Med Chem Lett, 2004).

Take `CCCCCCCCc1cc2cn([C@H]3C[C@H](O)[C@@H](CO)O3)c(=O)nc2s1`: the EC50 with Human alphaherpesvirus 3 [1] is more than 5 µM; with Human alphaherpesvirus 3 [2], 2 nM; in the experiment with Human alphaherpesvirus 3 [4] it was 5 nM. In addition, the MCC in experiment [3] stood at 20 µM. For the same compound, in experiment [5], the CC50 came to 53 µM.

`CCCc1ccc(-c2cc3cn([C@H]4C[C@H](O)[C@@H](CO)O4)c(=O)nc3s2)cc1`: the values for the EC50 in the experiment with Human alphaherpesvirus 3 [1], in the experiment with Human alphaherpesvirus 3 [2] and with Human alphaherpesvirus 3 [4] were more than 16 µM, 90 nM and 60 nM, respectively. This compound also gave an MCC in experiment [3] of 80 µM. The CC50 in experiment [5] was more than 200 µM.

Consider `Nc1nc2c(ncn2COCCO)c(=O)[nH]1` [ACYCLOVIR], for which the EC50 came to 40 µM in the experiment with Human alphaherpesvirus 3 [1] and 1100 nM in the experiment with Human alphaherpesvirus 3 [2]. In experiment [3], this compound gave an MCC of more than 200 µM. In experiment [5], this compound displayed a CC50 of more than 400 µM.

Take `CCCCCCc1ccc(-c2cc3cn([C@H]4C[C@H](O)[C@@H](CO)O4)c(=O)nc3s2)cc1`: the EC50 is more than 50 µM in the experiment on Human alphaherpesvirus 3 [1], 80 nM in the experiment on Human alphaherpesvirus 3 [2] and 43 nM in the experiment with Human alphaherpesvirus 3 [4]. The MCC in experiment [3] amounted to 200 µM. The same compound returned a CC50 in experiment [5] of more than 200 µM.

Take `CCc1ccc(-c2cc3cn([C@H]4C[C@H](O)[C@@H](CO)O4)c(=O)nc3s2)cc1`: the results for the EC50 in the experiment on Human alphaherpesvirus 3 [1], in the experiment with Human alphaherpesvirus 3 [2] and in the experiment with Human alphaherpesvirus 3 [4] were 20 µM, 200 nM and 150 nM, respectively. The MCC in experiment [3] was more than 200 µM. Besides, the CC50 in experiment [5] was more than 200 µM.

For `CCCCc1ccc(-c2cc3cn([C@H]4C[C@H](O)[C@@H](CO)O4)c(=O)nc3s2)cc1`, the EC50 is more than 3.2 µM with Human alphaherpesvirus 3 [1], 28 nM in the experiment with Human alphaherpesvirus 3 [2] and 20 nM in the experiment on Human alphaherpesvirus 3 [4]. The same compound registered an MCC in experiment [3] of 50 µM. Also, the CC50 in experiment [5] is more than 200 µM.

As to `CCCCCCCCc1ccc(-c2cc3cn([C@H]4C[C@H](O)[C@@H](CO)O4)c(=O)nc3s2)cc1`, the EC50 in the experiment on Human alphaherpesvirus 3 [1] is more than 20 µM; in the experiment on Human alphaherpesvirus 3 [4], 3400 nM. The compound also displayed an MCC in experiment [3] not below 20 µM. This compound came in with a CC50 in experiment [5] of more than 200 µM.

Regarding `CCCCCc1ccc(-c2cc3cn([C@H]4C[C@H](O)[C@@H](CO)O4)c(=O)nc3s2)cc1`, the EC50 stood at 20 µM in the experiment on Human alphaherpesvirus 3 [1], 25 nM in the experiment on Human alphaherpesvirus 3 [2] and 14 nM in the experiment with Human alphaherpesvirus 3 [4]. The MCC in experiment [3] turned out to be 50 µM. The compound further returned a CC50 in experiment [5] of more than 200 µM.

With `CCCCCCCc1ccc(-c2cc3cn([C@H]4C[C@H](O)[C@@H](CO)O4)c(=O)nc3s2)cc1`, the EC50 is more than 20 µM in the experiment with Human alphaherpesvirus 3 [1], 270 nM with Human alphaherpesvirus 3 [2] and 180 nM in the experiment on Human alphaherpesvirus 3 [4]. The same compound displayed an MCC in experiment [3] of 50 µM. This compound gave a CC50 in experiment [5] of more than 200 µM.

In general, EC50 refers to the concentration needed to bring the measured effect to its halfway point. Lower therefore signals higher potency in that assay. The term CC50 denotes the concentration at which the toxic effect on the cells reaches its halfway point. Read a high CC50 as lower toxicity to the cells.
